# How the values were obtained:
# [1] = tested on: LNCaP; experiment: Antiproliferative activity against human LNCaP cells; assay type: functional, cell-based
# [2] = molecular target: Androgen receptor (Homo sapiens) (UniProt P10275); experiment: Binding affinity to androgen receptor (unknown origin) at 10 uM relative to control
# [3] = molecular target: Protein cereblon/Protein deacetylase HDAC6 (Homo sapiens, UniProt Q96SW2+Q9UBN7); experiment: Protac activity at CRBN/HDAC6 in human MM1.S assessed as degradation of HDAC6 incubated for 6 hrs by ELISA; assay type: cell-based
# [4] = molecular target: Protein fem-1 homolog B/Bromodomain-containing protein 4 (Homo sapiens, UniProt O60885+Q9UK73); experiment: Protac activity at FEM1B/BRD4 in human HEK293T cells assessed as degradation of BRD4 incubated for 8 hrs by Western blot analysis; assay type: cell-based
# [5] = molecular target: Protein cereblon/Cyclin-dependent kinase 4 (Homo sapiens, UniProt P11802+Q96SW2); experiment: Protac activity at CRBN/CDK4 in human MDA-MB-231 cells; assay type: cell-based
# [6] = Cytotoxicity against HEK293 cells assessed as inhibition of cell growth; assay type: toxicity, cell-based; details: human
# [7] = molecular target: T1, von Hippel-Lindau disease tumor suppressor/Bromodomain-containing protein 2 (Homo sapiens, UniProt P25440+P40337); experiment: Protac activity at VHL/BRD2 in HEK293 cells assessed as degradation of BRD2 incubated for 4 hrs by Western blot analysis; assay type: cell-based
# [8] = molecular target: T2, von Hippel-Lindau disease tumor suppressor/Bromodomain-containing protein 3 (Homo sapiens, UniProt P40337+Q15059); experiment: Protac activity at VHL/BRD3 in HEK293 cells assessed as degradation of BRD3 incubated for 4 hrs by Western blot analysis; assay type: cell-based
# [9] = molecular target: T3, von Hippel-Lindau disease tumor suppressor/Bromodomain-containing protein 4 (Homo sapiens, UniProt O60885+P40337); experiment: Protac activity at VHL/BRD4 in HEK293 cells assessed as degradation of BRD4 incubated for 4 hrs by Western blot analysis; assay type: cell-based
# [10] = molecular target: Protein cereblon/Bromodomain-containing protein 4 (Homo sapiens, UniProt O60885+Q96SW2); experiment: Protac activity at CRBN/BRD4 (unknown origin); assay type: protein assay
# [11] = molecular target: T4, von Hippel-Lindau disease tumor suppressor/GTPase KRas (Homo sapiens, UniProt P01116+P40337, G12C); experiment: Protac activity at VHL/KRAS G12C mutant in human NCI-H2030 cells assessed as degradation of KRAS G12C mutant incubated for 24 hrs by immunoblot assay; assay type: cell-based
# [12] = molecular target: T4, von Hippel-Lindau disease tumor suppressor/GTPase KRas; experiment: Protac activity at VHL/KRAS G12C mutant in human MIA PaCa-2 cells assessed as degradation of KRAS G12C mutant incubated for 24 hrs by immunoblot assay; assay type: cell-based
# [13] = molecular target: T4, von Hippel-Lindau disease tumor suppressor/GTPase KRas; experiment: Protac activity at VHL/KRAS G12C mutant in human SW1573 cells assessed as degradation of KRAS G12C mutant incubated for 24 hrs by immunoblot assay; assay type: cell-based
# [14] = molecular target: T4, von Hippel-Lindau disease tumor suppressor/GTPase KRas; experiment: Protac activity at VHL/KRAS G12C mutant in human NCI-H23 cells assessed as degradation of KRAS G12C mutant incubated for 24 hrs by immunoblot assay; assay type: cell-based
# [15] = molecular target: T4, von Hippel-Lindau disease tumor suppressor/GTPase KRas; experiment: Protac activity at VHL/KRAS G12C mutant in human NCI-H358 cells assessed as degradation of KRAS G12C mutant incubated for 24 hrs by immunoblot assay; assay type: cell-based
# [16] = tested on: MCF7; experiment: Antiproliferative activity against human MCF7 cells assessed as inhibition of cell growth measured after 5 days by PrestoBlue cell viability assay; assay type: functional, cell-based; details: MCF7, 120 h
# [17] = molecular target: Protein cereblon/Cyclin-dependent kinase 6 (Homo sapiens, UniProt Q00534+Q96SW2); experiment: Protac activity at CRBN/CDK6 in human MDA-MB-231 cells; assay type: cell-based
# [18] = tested on: MV4-11; experiment: Antiproliferative activity against human MV4-11 cells incubated for 48 to 72 hrs by celltiter-glo luminescent cell viability assay; assay type: functional, cell-based
# [19] = molecular target: T3, von Hippel-Lindau disease tumor suppressor/Bromodomain-containing protein 4; experiment: Protac activity at VHL/BRD4 in human HeLa cells assessed as degradation of BRD4 incubated for 24 hrs by Western blotting analysis; assay type: cell-based
# [20] = molecular target: T1, von Hippel-Lindau disease tumor suppressor/Bromodomain-containing protein 2; experiment: Protac activity at VHL/BRD2 in human HeLa cells assessed as degradation of BRD2 incubated for 24 hrs by Western blotting analysis; assay type: cell-based
# [21] = molecular target: T2, von Hippel-Lindau disease tumor suppressor/Bromodomain-containing protein 3; experiment: Protac activity at VHL/BRD3 in human HeLa cells assessed as degradation of BRD3 incubated for 24 hrs by Western blotting analysis; assay type: cell-based
# [22] = molecular target: von Hippel-Lindau disease tumor suppressor/Histone deacetylase 3 (Homo sapiens, UniProt O15379+P40337); experiment: Protac activity at VHL/HDAC3 in human MDA-MB-468 assessed as degradation of HDAC3 incubated for 14 hrs by Western blot analysis; assay type: cell-based
# [23] = molecular target: von Hippel-Lindau disease tumor suppressor/Cyclin-dependent kinase 6 (Homo sapiens, UniProt P40337+Q00534); experiment: Protac activity at VHL/CDK6 in human MM1.S cells assessed as degradation of CDK6 incubated for 16 hrs by immunoblot assay; assay type: cell-based
# [24] = molecular target: Protein cereblon/GTPase KRas (Homo sapiens, UniProt P01116+Q96SW2, G12C); experiment: Protac activity at CRBN/KRAS G12C mutant in human NCI-H358 cells assessed as degradation of KRAS G12C mutant; assay type: cell-based
# [25] = tested on: HeLa; experiment: Antiproliferative activity against human HeLa cells; assay type: functional, cell-based
# [26] = tested on: OVCAR-8; experiment: Antiproliferative activity against human OVCAR-8 cells; assay type: functional, cell-based
# [27] = tested on: T47D; experiment: Antiproliferative activity against human T47D cells; assay type: functional, cell-based
# [28] = tested on: MM1.S; experiment: Antiproliferative activity against human MM1.S cells incubated for 72 hrs by MTS assay; assay type: functional, cell-based
# [29] = tested on: NCI-H358; experiment: Antiproliferative activity against human NCI-H358 cells assessed as inhibition of cell growth incubated for 5 days by celltiter-glo luminescent cell viability assay; assay type: functional, cell-based; details: NCI-H358, 120 h
# [30] = molecular target: von Hippel-Lindau disease tumor suppressor/Epidermal growth factor receptor (Homo sapiens, UniProt P00533+P40337); experiment: Protac activity at VHL/wildtype EGFR in human OVCAR-8 cells assessed as degradation of wild type EGFR incubated for 24 hrs by immunoblot assay; assay type: cell-based
# [31] = tested on: BaF3; experiment: Antiproliferative activity against mouse BaF3 cells harboring EGFR L858R/T790M mutant assessed as cell growth inhibition incubated for 72 hrs; assay type: functional, cell-based; details: BaF3, 72 h
# [32] = molecular target: T3, von Hippel-Lindau disease tumor suppressor/Bromodomain-containing protein 4; experiment: Protac activity at VHL/BRD4 in human HCT-116 cells assessed as degradation of BRD4 incubated for 24 hrs by immunoblot assay; assay type: cell-based
# [33] = tested on: MCF7; experiment: Antiproliferative activity against human MCF7 cells assessed as cell growth inhibition incubated for 6 days with media replacement for every 2 to 3 days by MTT assay; assay type: functional, cell-based
# [34] = molecular target: von Hippel-Lindau disease tumor suppressor/Estrogen receptor (Homo sapiens, UniProt P03372+P40337); experiment: Protac activity at VHL/ER alpha in human MCF7 cells assessed as degradation of ER alpha incubated for 6 hrs by Western blot analysis; assay type: cell-based
# T4 sequence (P01116 whole entry G12C, stated change not applied): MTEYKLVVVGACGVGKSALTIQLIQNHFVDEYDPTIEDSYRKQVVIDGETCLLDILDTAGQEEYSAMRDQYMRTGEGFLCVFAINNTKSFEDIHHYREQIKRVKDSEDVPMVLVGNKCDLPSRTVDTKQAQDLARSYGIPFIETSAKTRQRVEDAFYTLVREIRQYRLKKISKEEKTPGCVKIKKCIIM
# T4 sequence (P40337 whole entry, stated change not applied): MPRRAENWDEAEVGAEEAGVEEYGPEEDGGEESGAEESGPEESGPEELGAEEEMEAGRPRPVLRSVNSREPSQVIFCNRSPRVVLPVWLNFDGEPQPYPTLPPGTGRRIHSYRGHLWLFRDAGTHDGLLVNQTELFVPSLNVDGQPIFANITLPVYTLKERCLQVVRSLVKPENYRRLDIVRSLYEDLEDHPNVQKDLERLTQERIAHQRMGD
# T3 sequence (P40337 whole entry, looked up, other chains not shown): as the sequence (P40337 whole entry, stated change not applied) above
# T1 sequence (P25440 whole entry): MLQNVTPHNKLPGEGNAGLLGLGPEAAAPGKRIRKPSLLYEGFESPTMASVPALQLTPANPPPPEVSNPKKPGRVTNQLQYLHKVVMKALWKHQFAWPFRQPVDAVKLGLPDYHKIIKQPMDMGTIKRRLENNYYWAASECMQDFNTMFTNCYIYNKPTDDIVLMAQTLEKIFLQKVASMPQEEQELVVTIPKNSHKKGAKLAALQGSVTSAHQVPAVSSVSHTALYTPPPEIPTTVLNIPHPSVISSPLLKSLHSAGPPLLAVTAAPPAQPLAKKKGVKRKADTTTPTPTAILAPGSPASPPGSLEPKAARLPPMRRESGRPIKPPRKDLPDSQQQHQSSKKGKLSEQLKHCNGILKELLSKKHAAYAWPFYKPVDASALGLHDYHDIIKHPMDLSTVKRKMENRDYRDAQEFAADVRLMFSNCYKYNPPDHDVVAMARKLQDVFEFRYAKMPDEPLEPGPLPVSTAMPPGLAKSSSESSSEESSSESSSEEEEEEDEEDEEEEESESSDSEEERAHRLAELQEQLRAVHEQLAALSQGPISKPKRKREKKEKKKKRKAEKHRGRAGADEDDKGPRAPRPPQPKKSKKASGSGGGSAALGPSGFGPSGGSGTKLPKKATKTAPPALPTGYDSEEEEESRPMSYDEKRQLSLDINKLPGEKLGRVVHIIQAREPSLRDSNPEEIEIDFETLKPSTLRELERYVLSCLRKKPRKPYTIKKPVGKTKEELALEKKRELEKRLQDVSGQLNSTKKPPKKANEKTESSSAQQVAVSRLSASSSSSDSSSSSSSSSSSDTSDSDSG
# T1 sequence (P40337 whole entry): as the sequence (P40337 whole entry, stated change not applied) above
# T2 sequence (Q15059 whole entry): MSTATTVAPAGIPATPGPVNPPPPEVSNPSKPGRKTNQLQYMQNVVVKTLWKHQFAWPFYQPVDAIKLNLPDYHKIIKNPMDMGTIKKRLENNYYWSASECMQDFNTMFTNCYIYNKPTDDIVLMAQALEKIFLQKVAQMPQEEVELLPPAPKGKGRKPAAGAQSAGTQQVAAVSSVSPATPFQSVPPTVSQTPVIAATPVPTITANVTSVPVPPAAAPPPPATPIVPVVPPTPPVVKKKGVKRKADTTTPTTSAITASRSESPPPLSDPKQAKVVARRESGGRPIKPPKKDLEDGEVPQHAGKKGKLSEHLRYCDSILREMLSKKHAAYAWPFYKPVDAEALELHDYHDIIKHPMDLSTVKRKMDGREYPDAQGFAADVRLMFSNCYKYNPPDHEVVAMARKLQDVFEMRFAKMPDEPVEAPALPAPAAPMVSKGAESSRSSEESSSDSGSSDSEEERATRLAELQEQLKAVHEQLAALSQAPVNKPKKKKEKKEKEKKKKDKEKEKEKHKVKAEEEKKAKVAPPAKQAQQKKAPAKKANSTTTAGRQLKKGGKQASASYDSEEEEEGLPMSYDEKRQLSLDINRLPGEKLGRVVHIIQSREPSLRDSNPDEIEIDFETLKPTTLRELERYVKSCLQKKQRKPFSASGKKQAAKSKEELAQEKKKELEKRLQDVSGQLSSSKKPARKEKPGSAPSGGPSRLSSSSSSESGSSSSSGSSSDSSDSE
# T2 sequence (P40337 whole entry): as the sequence (P40337 whole entry, stated change not applied) above
# Chain of Protein cereblon/Cyclin-dependent kinase 4 (P11802 whole entry): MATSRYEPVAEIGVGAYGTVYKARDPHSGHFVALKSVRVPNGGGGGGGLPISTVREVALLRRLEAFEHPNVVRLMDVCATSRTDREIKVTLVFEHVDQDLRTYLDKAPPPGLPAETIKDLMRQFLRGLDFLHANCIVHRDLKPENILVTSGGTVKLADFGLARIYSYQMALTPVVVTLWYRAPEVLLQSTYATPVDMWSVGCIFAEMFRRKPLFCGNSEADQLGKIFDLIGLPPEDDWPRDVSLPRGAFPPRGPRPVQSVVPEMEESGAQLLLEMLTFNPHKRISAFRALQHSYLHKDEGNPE
# Chain of Protein cereblon/Cyclin-dependent kinase 4 (Q96SW2 whole entry): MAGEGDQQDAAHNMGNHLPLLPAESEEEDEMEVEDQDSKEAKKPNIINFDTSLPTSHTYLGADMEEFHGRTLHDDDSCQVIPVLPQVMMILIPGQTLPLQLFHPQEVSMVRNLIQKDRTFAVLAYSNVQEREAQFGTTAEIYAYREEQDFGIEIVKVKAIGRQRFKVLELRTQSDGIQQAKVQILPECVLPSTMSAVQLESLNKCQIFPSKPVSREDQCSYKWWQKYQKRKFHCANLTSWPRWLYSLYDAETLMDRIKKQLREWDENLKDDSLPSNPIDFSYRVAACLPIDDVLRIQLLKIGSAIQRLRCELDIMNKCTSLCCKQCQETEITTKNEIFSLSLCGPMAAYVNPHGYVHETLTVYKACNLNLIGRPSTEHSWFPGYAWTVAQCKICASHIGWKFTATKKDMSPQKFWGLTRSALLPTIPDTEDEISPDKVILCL
# Chain of Androgen receptor (Homo sapiens) (P10275 whole entry): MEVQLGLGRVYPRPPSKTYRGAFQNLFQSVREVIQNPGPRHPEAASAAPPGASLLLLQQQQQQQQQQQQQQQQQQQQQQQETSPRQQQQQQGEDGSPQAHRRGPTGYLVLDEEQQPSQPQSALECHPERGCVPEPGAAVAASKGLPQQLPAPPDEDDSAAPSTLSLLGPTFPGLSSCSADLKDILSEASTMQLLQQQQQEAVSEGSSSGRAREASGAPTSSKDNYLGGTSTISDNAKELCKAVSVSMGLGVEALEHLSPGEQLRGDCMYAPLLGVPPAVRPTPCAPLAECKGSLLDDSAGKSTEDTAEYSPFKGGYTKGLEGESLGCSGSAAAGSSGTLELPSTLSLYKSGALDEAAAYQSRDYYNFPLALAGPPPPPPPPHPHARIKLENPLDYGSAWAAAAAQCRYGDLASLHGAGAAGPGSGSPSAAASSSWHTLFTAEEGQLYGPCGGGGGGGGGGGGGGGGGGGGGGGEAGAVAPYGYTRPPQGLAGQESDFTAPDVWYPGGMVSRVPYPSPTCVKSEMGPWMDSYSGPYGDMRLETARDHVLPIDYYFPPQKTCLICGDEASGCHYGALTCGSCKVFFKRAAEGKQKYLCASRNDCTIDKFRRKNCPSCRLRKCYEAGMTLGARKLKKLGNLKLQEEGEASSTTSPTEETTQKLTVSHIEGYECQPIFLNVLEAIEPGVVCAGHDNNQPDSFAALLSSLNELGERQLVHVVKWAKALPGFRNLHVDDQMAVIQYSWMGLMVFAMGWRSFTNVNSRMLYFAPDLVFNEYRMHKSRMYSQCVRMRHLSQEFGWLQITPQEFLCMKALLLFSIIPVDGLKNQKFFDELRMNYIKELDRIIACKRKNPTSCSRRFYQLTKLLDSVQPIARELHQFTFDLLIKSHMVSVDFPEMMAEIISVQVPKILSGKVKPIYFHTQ
# Chain of von Hippel-Lindau disease tumor suppressor/Histone deacetylase 3 (O15379 whole entry): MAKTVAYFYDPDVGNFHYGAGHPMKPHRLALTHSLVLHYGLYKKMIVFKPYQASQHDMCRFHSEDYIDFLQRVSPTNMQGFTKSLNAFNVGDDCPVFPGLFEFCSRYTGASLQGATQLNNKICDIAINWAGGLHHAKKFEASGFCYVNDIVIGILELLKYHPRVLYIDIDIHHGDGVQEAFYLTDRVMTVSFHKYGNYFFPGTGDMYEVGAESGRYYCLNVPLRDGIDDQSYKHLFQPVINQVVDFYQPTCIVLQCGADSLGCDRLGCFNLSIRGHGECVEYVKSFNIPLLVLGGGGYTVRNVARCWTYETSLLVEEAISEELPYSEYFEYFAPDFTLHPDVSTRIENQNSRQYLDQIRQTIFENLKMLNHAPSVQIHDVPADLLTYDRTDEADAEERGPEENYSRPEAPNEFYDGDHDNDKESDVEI
# Chain of von Hippel-Lindau disease tumor suppressor/Histone deacetylase 3 (P40337 whole entry): as the sequence (P40337 whole entry, stated change not applied) above
smiles,measurement,setting,value
CC1(C)C(=O)N(c2ccc(C#N)c(C(F)(F)F)c2)C(=S)N1COCCOCCOn1cc(CCCCCC(=O)CC23CC4CC(CC(C4)C2)C3)nn1,IC50,[1],1750 nM
same,Activity,[2],82.6%
O=C(CCCCCCC(=O)N/N=C/c1ccc(OCCCC#Cc2cccc3c2CN(C2CCC(=O)NC2=O)C3=O)cc1)NO (stereo not given),EC50,[3],1.9 nM
C#CCCN(C(=O)CCl)c1ccc2c(c1)OCCN2CC(=O)NCCCCNC(=O)C[C@@H]1N=C(c2ccc(Cl)cc2)c2c(sc(C)c2C)-n2c(C)nnc21,EC50,[4],250 nM
CN(C)C(=O)c1cn(C2CCCC2)c2cnc(Nc3ccc(N4CCN(c5cn(CCCCCNc6cccc7c6C(=O)N(C6CCC(=O)NC6=O)C7=O)nn5)CC4)cn3)nc12 (stereo not given),EC50,[5],97 nM
Cc1ncsc1-c1ccc(CNC(=O)[C@H]2C[C@H](O)CN2C(=O)[C@H](NC(=O)COCC(C)(COCCOCCOCCNC(=O)C[C@H]2N=C(c3ccc(Cl)cc3)c3c(sc(C)c3C)-n3c(C)nnc32)COCCOCCOCCNC(=O)C[C@H]2N=C(c3ccc(Cl)cc3)c3c(sc(C)c3C)-n3c(C)nnc32)C(C)(C)C)cc1,IC50,[6],1.1 nM
same,EC50,[7],1.1 nM
same,EC50,[8],3.3 nM
same,EC50,[9],0.7 nM
Cc1sc2c(c1C)C(c1ccc(Cl)cc1)=N[C@@H](CC(=O)NCCCCCNC(=O)COc1ccc(C3CCC(=O)NC3=O)cc1)c1nnc(C)n1-2 (stereo not given in full),EC50,[10],0.87 nM
C=C(F)C(=O)N1CCN(c2nc(O[C@@H]3CCCN3CCCOCCC(=O)N[C@H](C(=O)N3C[C@H](O)C[C@H]3C(=O)NCc3ccc(-c4scnc4C)cc3)C(C)(C)C)nc3c2CCN(c2cccc4cccc(Cl)c24)C3)C[C@H]1CC#N,EC50,[11],250 nM
same,EC50,[12],250 nM
same,EC50,[13],250 nM
same,EC50,[14],250 nM
same,EC50,[15],250 nM
CCN(CCCCCCCC(=O)NC(C(=O)N1C[C@@H](O)C[C@@H]1C(=O)N[C@H](C)c1ccc(-c2scnc2C)cc1)C(C)(C)C)CCOc1ccc(C(=O)c2c(-c3ccc(O)cc3)sc3cc(O)ccc23)cc1 (stereo not given in full),IC50,[16],0.8 nM
CC(=O)C1=C(O)N(C2CCCC2)c2nc(Nc3ccc(N4CCN(Cc5cn(CCCCCNc6cccc7c6C(=O)N(C6CCC(=O)NC6=O)C7=O)nn5)CC4)cn3)ncc2C1C (stereo not given),EC50,[5],12.9 nM
same,EC50,[17],34.1 nM
Cc1ncsc1-c1ccc2c(c1)OCCOCCO[C@H](NC(=O)C[C@@H]1N=C(c3ccc(Cl)cc3)c3c(sc(C)c3C)-n3c(C)nnc31)COCCOCCOCC(=O)N[C@H](C(C)(C)C)C(=O)N1C[C@@H](O)C[C@@H]1C(=O)NC2,EC50,[18],300 nM
same,EC50,[19],25 nM
same,EC50,[20],> 125 nM
same,EC50,[21],> 125 nM
CCCNNC(=O)c1ccc(-c2ccc(NC(=O)CCCCCCC(=O)NC(C(=O)N3C[C@@H](O)C[C@@H]3C(=O)N[C@H](C)c3ccc(-c4scnc4C)cc3)C(C)(C)C)cc2)cc1 (stereo not given in full),EC50,[22],42 nM
CC(=O)C1=C(O)N(C2CCCC2)c2nc(Nc3ccc(N4CCN(CCOCCOCCOc5cc(-c6scnc6C)ccc5CNC(=O)[C@@H]5C[C@@H](O)CN5C(=O)C(NC(=O)C5(F)CC5)C(C)(C)C)CC4)cn3)ncc2C1C (stereo not given in full),EC50,[23],5.1 nM
COc1cc(Cl)c(-c2cc(Cl)ccc2Cl)cc1C(=O)N1CCN(C(=O)/C=C/C(=O)NCCCCCCNc2cccc3c2C(=O)N(C2CCC(=O)NC2=O)C3=O)CC1 (stereo not given),EC50,[24],1250 nM
Cc1ncsc1-c1ccc(CNC(=O)[C@@H]2C[C@@H](OC(=O)CCCCn3cc(NC(=O)CC[C@@H](NC(=O)c4ccc(NCc5cnc6nc(N)[nH]c(=O)c6n5)cc4)C(=O)O)nn3)CN2C(=O)[C@@H](NC(=O)COCCCOCCNC(=O)C[C@@H]2N=C(c3ccc(Cl)cc3)c3c(sc(C)c3C)-n3c(C)nnc32)C(C)(C)C)cc1,IC50,[25],246 nM
same,IC50,[26],297 nM
same,IC50,[27],18 nM
Nc1ccccc1NC(=O)c1ccc(COc2cccc3c2CN(C2CCC(=O)NC2=O)C3=O)cc1 (stereo not given),IC50,[28],43 nM
C=CC(=O)N1CCN(c2nc(NCCCN3CCN(CCCNc4cccc5c4C(=O)N(C4CCC(=O)NC4=O)C5=O)CC3)nc3cc(Cl)c(-c4cc(O)cc5ccccc45)c(F)c23)CC1 (stereo not given),IC50,[29],510 nM
Cc1ncsc1-c1ccc(CNC(=O)[C@@H]2C[C@@H](O)CN2C(=O)[C@@H](NC(=O)COCCOCCOCCOc2ccc(-c3ccc4ncnc(Nc5ccc(OCc6cccc(F)c6)c(Cl)c5)c4c3)cc2)C(C)(C)C)cc1,EC50,[30],39.2 nM
O=C1CCC(N2C(=O)c3cccc(NCCOCCOCCOCCN4CCN(c5ccc(-c6ccc7c(c6)C(=O)N(C(C(=O)Nc6nccs6)c6ccccc6)C7)cn5)CC4)c3C2=O)C(=O)N1 (stereo not given),IC50,[31],96 nM
COc1cc(C(=O)NCCOCCOCCOCCNC(=O)C[C@@H]2N=C(c3ccc(Cl)cc3)c3c(sc(C)c3C)-n3c(C)nnc32)ccc1NC(=O)[C@@H]1N[C@@H](CC(C)(C)C)[C@](C#N)(c2ccc(Cl)cc2F)[C@H]1c1cccc(Cl)c1F,EC50,[32],23.1 nM
Cc1ncsc1-c1ccc([C@@H](C)NC(=O)[C@H]2C[C@H](O)CN2C(=O)[C@H](NC(=O)CCCCOc2ccc(CCNC(=O)c3ccc(C(=O)c4c(-c5ccc(O)cc5)sc5cc(O)ccc45)cc3)cc2)C(C)(C)C)cc1,IC50,[33],13.2 nM
same,EC50,[34],1.1 nM

# From ChEMBL document CHEMBL5247611, “A bibliometric analysis of PROTAC from 2001 to 2021” (Eur J Med Chem, 2022)
